{"source": "patent US20080075628A1", "about": "“STERILIZED MINOCYCLINE AND RIFAMPIN-CONTAINING MEDICAL DEVICE” (MEDTRONIC, INC., priority 2006, published 2008)", "conditions": "for Recoverable rifampin after sterilization, Post EtO % / Recoverable rifampin after sterilization, Post e-beam % / Recoverable rifampin after sterilization, Post gamma % / Recoverable rifampin after sterilization, Post Steam %: relative to pre-sterilization (100%)", "method": "Materials and Methods: Minocycline and rifampin were incorporated into discs, sheet stock and silicone boots and subjected to Steam, EtO, gamma radiation and e-beam sterilization as follows:\nEach boot was cut into pieces (24) with scissors. The pieces were extracted together in a 60-125 ml jar w/top. All the pieces were placed in jar, and 4:1 THF/ethanol (50 mL for thick boots; 15 mL for thin boots) was added. The pieces were allowed to swell, and the drug is extracted for 1 hour (1st extraction). The extract was then collected and transferred to a 25-100 mL volumetric flask. A second 4:1 THF/ethanol (50 mL for thick boots w/holes; 10 mL for thin boots with holes) extraction was added to the jar, and the transfer pipette was rinsed with this second extract and discarded. The pieces were allowed to swell, and the drug is extracted for 1 hour (2nd extraction). The extract was then collected and transferred to the 25-100 mL volumetric flask containing the first extract. A small amount of extra solvent was needed to make up to volume due to solvent lost to evaporation and polymer swell. This amount also served as a final rinse of both the polymer and the transfer pipette.\nExtraction Process—Sheet Stock\nDiscs was cut from the sheet stock with a die press. The discs were extracted separate in a 1 oz jar w/top. 4:1 THF/ethanol (5 mL) was added. The pieces were allowed to swell, and the drug is extracted for 1 hour (1st extraction). The extract was then collected and transferred to a 10 mL volumetric flask. A second 4:1 THF/ethanol (5 mL) extraction was added to the jar, and the transfer pipette was rinsed with this second extract and discarded. The pieces were allowed to swell, and the drug is extracted for 1 hour. (2nd extraction). The extract was then collected and transferred to the 10 mL volumetric flask containing the first extract. A small amount of extra solvent was needed to make up to 10 mL due to solvent lost to evaporation and polymer swell. This amount also served as a final rinse of both the polymer and the transfer pipette.\nAfter extraction with THF/ethanol 4:1, extract was transferred to an HPLC vial and injected directly. The following high performance liquid chromatography (HPLC) method was used:\n1. Chromatographic Conditions: • Instrument: Agilent 1100 stack • Column: Prodigy analytical column (150×4.6 mm) • Detection mode: UV detection at 238 nm • Flow rate: 1.0 mL/min • Column temperature: 25° C. • Injection volume: 10 uL • Mobile phase A: 1.4 g/L dibasic sodium phosphate buffer pH 6.8 • Mobile phase B: ACN 100%", "note": "Where “and” joins values, the source holds several entries; their conditions need not be identical. Equal values may be shown once. Read-outs that look alike come from different tables or passages of the source."}
{"compound": "CN(C)c1ccc(O)c2c1C[C@H]1C[C@H]3[C@H](N(C)C)C(O)=C(C(N)=O)C(=O)[C@@]3(O)C(O)=C1C2=O", "note": "[minocycline]", "values": [{"measurement": "Recoverable minocycline remaining after sterilization, Post Steam %", "value": 0, "unit": "%"}, {"measurement": "minocycline remaining with EtO sterilization", "value": "86.8-100%"}]}
{"compound": "CO[C@H]1/C=C/O[C@@]2(C)Oc3c(C)c(O)c4c(O)c(c(/C=N/N5CCN(C)CC5)c(O)c4c3C2=O)NC(=O)/C(C)=C\\C=C\\[C@H](C)[C@H](O)[C@@H](C)[C@@H](O)[C@@H](C)[C@H](OC(C)=O)[C@@H]1C", "note": "[rifampin]", "values": [{"measurement": "rifampin remaining with EtO sterilization", "value": "46.0-77.5%"}, {"measurement": "Recoverable rifampin after sterilization, Post EtO %", "setting": "medium 4735–0.005″ Sheet stock", "value": 46.0, "unit": "%"}, {"measurement": "Recoverable rifampin after sterilization, Post EtO %", "setting": "medium 4735–0.015″ Sheet stock", "value": 72.0, "unit": "%"}, {"measurement": "Recoverable rifampin after sterilization, Post EtO %", "setting": "medium 4850–0.005″ Boot", "value": 65.4, "unit": "%"}, {"measurement": "Recoverable rifampin after sterilization, Post EtO %", "setting": "medium 4850–0.005″ Sheet Stock", "value": "74.1% and 59.1%"}, {"measurement": "Recoverable rifampin after sterilization, Post EtO %", "setting": "medium 4850–0.015″ Boot", "value": 77.5, "unit": "%"}, {"measurement": "Recoverable rifampin after sterilization, Post EtO %", "setting": "medium 4850–0.015″ Sheet Stock", "value": 71.6, "unit": "%"}, {"measurement": "Recoverable rifampin after sterilization, Post e-beam %", "setting": "e-beam, medium 4735–0.015″ Boot", "value": 90.2, "unit": "%"}, {"measurement": "Recoverable rifampin after sterilization, Post e-beam %", "setting": "e-beam, medium 4735–0.015″ Sheet stock", "value": "95.1% and 92.4%"}, {"measurement": "incorporated rifampin recovered after e-beam sterilization", "setting": "e-beam, sheet stock, range", "value": "92.4-95.1%"}, {"measurement": "incorporated rifampin recovered after ethylene oxide sterilization", "setting": "ethylene oxide, sheet stock incorporating minocycline and rifampin, range over the media tested", "value": "46.0-74.1%"}, {"measurement": "Recoverable rifampin after sterilization, Post gamma %", "setting": "gamma radiation, medium 4735–0.005″ Sheet stock", "value": 81.4, "unit": "%"}, {"measurement": "Recoverable rifampin after sterilization, Post gamma %", "setting": "gamma radiation, medium 4735–0.015″ Sheet stock", "value": "82.8% and 88.6%"}, {"measurement": "Recoverable rifampin after sterilization, Post gamma %", "setting": "gamma radiation, medium 4850–0.005″ Sheet Stock", "value": 71.5, "unit": "%"}, {"measurement": "Recoverable rifampin after sterilization, Post gamma %", "setting": "gamma radiation, medium 4850–0.015″ Sheet Stock", "value": 78.4, "unit": "%"}, {"measurement": "incorporated rifampin recovered after gamma radiation", "setting": "gamma radiation, sheet stock, range over the media tested", "value": "75.1-88.6%"}, {"measurement": "Recoverable rifampin after sterilization, Post Steam %", "setting": "steam sterilization, medium 4735–0.015″ Sheet stock", "value": 34.3, "unit": "%"}, {"measurement": "Recoverable rifampin after sterilization, Post Steam %", "setting": "steam sterilization, medium 4850–0.005″ Sheet Stock", "value": 19.5, "unit": "%"}, {"measurement": "Recoverable rifampin after sterilization, Post Steam %", "setting": "steam sterilization, medium 4850–0.015″ Sheet Stock", "value": 28.3, "unit": "%"}, {"measurement": "rifampin recoverable after steam sterilization", "setting": "steam sterilization, silicone sheet stock, range over the media tested", "value": "19.5 to 34.3", "unit": "%"}]}
